In article PMC6437697 (Journal of Medicinal Chemistry, 2019) one finds remaining binding data, which are given here for three compounds.

Common to all, as to test: KINOMEscan
Holding throughout (assay type): binding
Common to all, as to conditions: read-out: % control activity remaining

For one assay, the target named is T1, PIK3CA(Q546K) (Homo sapiens, UniProt P42336, Q546K).
T1 construct: purchased Eurofins DiscoverX KINOMEscan

Another assay addresses T2, HASPIN (Homo sapiens, UniProt Q8TF76).
T2 construct: purchased Eurofins DiscoverX KINOMEscan
T2 sequence (Q8TF76 1-798): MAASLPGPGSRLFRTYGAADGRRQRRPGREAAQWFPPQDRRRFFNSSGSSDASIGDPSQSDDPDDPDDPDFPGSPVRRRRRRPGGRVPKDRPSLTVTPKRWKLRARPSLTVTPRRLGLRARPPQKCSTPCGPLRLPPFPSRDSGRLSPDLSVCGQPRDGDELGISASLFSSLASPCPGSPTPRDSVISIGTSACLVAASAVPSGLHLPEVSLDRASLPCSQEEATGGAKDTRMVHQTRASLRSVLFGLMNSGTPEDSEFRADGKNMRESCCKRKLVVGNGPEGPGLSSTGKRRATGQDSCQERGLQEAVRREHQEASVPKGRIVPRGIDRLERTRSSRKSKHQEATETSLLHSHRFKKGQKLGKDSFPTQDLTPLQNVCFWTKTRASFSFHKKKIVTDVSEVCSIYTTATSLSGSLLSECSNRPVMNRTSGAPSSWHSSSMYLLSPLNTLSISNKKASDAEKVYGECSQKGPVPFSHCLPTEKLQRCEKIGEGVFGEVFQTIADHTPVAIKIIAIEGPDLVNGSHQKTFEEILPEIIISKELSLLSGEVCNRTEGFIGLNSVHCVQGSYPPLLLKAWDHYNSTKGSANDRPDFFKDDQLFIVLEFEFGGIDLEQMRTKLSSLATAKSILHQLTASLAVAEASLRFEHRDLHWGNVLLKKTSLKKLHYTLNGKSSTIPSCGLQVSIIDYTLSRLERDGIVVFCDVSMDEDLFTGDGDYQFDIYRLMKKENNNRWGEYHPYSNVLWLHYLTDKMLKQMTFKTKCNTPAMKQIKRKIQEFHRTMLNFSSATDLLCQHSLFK

For another assay, the target named is T3, BLK (Homo sapiens, UniProt P51451).
T3 construct: purchased Eurofins DiscoverX KINOMEscan

The target of a further assay is T4, STK33 (Homo sapiens, UniProt Q9BYT3).
T4 construct: purchased Eurofins DiscoverX KINOMEscan

The target in another assay is T5, ACVRL1 (Homo sapiens, UniProt P37023).
T5 construct: purchased Eurofins DiscoverX KINOMEscan

The target of the next assay is T6, DCAMKL3 (Homo sapiens, UniProt Q9C098).
T6 construct: purchased Eurofins DiscoverX KINOMEscan
T6 sequence (Q9C098 1-648): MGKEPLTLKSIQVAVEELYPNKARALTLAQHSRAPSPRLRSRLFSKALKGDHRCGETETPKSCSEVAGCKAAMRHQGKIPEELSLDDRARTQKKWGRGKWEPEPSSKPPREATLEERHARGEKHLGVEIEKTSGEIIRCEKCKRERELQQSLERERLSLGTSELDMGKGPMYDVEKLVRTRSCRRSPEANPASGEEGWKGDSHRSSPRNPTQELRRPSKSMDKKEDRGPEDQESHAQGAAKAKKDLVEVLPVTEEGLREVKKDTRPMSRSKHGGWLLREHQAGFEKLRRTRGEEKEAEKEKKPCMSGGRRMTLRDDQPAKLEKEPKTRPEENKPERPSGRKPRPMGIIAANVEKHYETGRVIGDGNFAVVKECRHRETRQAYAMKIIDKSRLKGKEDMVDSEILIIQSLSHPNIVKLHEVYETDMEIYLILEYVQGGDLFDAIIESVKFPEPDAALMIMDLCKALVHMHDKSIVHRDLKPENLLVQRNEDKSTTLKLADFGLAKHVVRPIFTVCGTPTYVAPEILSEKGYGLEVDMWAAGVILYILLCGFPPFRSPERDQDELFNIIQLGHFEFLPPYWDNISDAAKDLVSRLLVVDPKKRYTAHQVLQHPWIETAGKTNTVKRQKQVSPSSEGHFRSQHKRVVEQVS

A further assay deals with T7, EPHB6 (Homo sapiens, UniProt O15197).
T7 construct: purchased Eurofins DiscoverX KINOMEscan
T7 sequence (O15197 32-1021): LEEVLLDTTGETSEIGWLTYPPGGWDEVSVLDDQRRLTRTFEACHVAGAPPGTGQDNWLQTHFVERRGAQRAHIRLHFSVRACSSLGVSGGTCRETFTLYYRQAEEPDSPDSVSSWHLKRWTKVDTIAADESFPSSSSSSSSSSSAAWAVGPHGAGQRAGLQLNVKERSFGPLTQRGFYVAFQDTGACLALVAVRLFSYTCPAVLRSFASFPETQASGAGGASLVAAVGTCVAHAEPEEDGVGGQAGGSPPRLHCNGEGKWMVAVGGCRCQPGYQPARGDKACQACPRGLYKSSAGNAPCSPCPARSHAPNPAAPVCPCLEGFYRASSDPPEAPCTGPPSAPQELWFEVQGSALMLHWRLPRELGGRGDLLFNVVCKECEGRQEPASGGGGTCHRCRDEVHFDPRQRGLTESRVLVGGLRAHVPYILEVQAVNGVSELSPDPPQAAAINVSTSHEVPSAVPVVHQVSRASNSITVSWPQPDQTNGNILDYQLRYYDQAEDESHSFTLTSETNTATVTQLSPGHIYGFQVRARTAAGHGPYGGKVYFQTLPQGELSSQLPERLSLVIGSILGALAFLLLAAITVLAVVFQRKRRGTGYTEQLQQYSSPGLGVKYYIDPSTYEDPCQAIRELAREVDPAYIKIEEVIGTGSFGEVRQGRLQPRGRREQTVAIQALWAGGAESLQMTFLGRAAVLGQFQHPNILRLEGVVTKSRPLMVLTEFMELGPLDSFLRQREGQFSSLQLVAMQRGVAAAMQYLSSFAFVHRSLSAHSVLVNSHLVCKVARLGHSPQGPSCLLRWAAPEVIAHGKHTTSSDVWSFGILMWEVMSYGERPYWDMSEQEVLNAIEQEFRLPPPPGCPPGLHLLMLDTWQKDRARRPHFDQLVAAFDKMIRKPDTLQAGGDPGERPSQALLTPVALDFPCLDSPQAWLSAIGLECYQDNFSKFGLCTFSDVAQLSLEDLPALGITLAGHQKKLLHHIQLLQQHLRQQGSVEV

T1 sequence (P42336 whole entry Q546K): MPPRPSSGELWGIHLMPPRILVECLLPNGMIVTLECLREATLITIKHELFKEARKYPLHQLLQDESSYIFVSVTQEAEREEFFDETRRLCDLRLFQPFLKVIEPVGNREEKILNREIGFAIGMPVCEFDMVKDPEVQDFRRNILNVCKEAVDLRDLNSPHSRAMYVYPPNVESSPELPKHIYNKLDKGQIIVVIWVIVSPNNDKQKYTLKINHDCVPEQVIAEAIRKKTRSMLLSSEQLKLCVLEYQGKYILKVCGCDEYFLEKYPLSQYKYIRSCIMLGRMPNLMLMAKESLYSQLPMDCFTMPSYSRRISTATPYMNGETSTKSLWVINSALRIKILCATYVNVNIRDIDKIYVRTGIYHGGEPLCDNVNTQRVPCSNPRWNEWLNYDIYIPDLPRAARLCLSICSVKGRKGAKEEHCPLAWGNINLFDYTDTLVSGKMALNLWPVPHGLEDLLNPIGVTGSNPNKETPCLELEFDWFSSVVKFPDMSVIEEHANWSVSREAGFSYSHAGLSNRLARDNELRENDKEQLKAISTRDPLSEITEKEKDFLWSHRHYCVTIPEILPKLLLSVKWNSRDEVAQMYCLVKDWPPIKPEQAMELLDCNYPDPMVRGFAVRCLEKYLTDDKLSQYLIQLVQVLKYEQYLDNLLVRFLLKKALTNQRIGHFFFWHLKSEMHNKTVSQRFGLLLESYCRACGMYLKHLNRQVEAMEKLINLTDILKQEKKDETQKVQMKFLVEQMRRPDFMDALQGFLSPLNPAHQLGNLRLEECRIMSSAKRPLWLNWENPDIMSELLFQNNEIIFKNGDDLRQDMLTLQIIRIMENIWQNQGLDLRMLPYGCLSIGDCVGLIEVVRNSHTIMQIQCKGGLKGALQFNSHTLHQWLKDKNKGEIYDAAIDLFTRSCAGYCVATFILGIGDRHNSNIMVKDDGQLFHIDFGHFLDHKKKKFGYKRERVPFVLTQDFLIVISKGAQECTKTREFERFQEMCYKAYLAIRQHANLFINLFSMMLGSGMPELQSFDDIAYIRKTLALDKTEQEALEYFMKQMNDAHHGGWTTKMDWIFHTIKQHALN
T3 sequence (P51451 whole entry): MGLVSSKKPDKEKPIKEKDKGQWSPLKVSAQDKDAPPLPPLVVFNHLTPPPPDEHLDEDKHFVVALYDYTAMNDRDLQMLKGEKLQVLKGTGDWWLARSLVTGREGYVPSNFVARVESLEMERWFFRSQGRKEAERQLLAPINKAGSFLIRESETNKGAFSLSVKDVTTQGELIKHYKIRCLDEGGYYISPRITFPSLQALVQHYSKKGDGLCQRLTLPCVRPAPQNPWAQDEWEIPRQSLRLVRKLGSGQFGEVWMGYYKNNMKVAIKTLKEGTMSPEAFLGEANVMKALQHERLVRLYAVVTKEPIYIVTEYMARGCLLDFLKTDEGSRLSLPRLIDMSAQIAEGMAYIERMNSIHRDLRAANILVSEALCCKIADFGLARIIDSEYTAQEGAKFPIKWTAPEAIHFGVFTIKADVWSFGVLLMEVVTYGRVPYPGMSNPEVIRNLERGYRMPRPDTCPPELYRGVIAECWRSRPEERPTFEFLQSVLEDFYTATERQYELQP
T4 sequence (Q9BYT3 whole entry): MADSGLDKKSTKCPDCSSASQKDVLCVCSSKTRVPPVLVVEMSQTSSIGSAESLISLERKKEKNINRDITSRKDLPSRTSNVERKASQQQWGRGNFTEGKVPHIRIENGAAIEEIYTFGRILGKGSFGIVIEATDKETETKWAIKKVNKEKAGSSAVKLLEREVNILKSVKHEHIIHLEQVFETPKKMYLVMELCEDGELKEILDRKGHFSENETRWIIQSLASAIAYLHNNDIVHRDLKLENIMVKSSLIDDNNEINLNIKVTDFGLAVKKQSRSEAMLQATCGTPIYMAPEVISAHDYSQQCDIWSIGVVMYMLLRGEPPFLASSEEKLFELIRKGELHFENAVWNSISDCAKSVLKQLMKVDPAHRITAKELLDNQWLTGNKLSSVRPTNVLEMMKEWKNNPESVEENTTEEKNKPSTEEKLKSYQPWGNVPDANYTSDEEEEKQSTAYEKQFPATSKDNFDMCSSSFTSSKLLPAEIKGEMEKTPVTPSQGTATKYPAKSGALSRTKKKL
T5 sequence (P37023 22-503): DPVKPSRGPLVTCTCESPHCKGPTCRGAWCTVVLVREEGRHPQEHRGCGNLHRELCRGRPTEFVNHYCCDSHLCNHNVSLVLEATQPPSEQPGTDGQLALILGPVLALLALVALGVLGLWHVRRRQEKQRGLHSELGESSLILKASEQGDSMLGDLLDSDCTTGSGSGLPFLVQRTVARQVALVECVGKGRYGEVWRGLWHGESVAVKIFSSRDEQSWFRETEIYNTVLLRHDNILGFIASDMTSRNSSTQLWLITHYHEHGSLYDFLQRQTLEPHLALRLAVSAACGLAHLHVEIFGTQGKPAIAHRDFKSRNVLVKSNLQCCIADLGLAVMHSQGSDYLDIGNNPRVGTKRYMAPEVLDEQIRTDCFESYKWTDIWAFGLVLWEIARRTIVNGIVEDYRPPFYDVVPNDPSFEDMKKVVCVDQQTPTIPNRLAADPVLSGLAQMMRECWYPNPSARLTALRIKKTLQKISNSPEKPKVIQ

Take `Clc1cc(NCC2CC2)c2ncc(-c3ccc4[nH]ncc4c3)n2n1` [compound 2, 6-Chloro-N-(cyclopropylmethyl)-3-(1H-indazol-5-yl)imidazo[1,2-b]pyridazin-8-amine]: the remaining binding at 1 µM was 88% on PIK3CA(Q546K); 21% on HASPIN; 53% at BLK; 47% at STK33; 98% on ACVRL1; 100% at DCAMKL3. The remaining binding at 1 µM at EPHB6 worked out at 68%.
`O=C(CN1CCOCC1)N[C@H]1CC[C@H](Nc2cc(Cl)nn3c(-c4ccc5[nH]ncc5c4)cnc23)CC1` [compound 26]: the remaining binding at 1 µM on PIK3CA(Q546K) turned out to be 100%; at HASPIN it was 22%; at BLK it was 95%; at STK33 it was 25%; at ACVRL1, 100%; on DCAMKL3 it was 100%. The remaining binding at 1 µM at EPHB6 is 89%.
For `CN1CCC(CNc2cc(Cl)nn3c(-c4cc5nc(Nc6ccccc6)[nH]c5cc4F)cnc23)CC1` [compound 31, 6-Chloro-3-(6-fluoro-2-(phenylamino)-1H-benzo[d]imidazol-5-yl)-N-((1-methylpiperidin-4-yl)methyl)imidazo[1,2-b]pyridazin-8-amine], the remaining binding at 1 µM on PIK3CA(Q546K) came out at 81%; on HASPIN, 66%; at BLK, 79%; at STK33, 100%; on ACVRL1, 100%; at DCAMKL3, 100%. For the same compound, the remaining binding at 1 µM on EPHB6 is 83%.
